Where only a bound is given, the exact number is not on record here.

STING, sequence (Q86WV6 whole entry R71H/G230A/H232R/R293Q): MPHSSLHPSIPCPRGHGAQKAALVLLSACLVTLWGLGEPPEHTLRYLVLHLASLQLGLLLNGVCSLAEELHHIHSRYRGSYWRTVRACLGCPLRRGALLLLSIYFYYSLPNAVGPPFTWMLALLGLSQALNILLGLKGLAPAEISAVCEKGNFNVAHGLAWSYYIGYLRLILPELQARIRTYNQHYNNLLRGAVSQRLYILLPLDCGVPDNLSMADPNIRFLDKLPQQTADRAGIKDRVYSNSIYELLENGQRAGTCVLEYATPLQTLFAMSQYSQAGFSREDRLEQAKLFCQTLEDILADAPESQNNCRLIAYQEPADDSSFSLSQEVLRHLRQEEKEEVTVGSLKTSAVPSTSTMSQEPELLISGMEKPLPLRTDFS

For one assay, the target named is STING (Homo sapiens, UniProt Q86WV6, G230A/H232R/R293Q/R71H). Nature of the assay: STING reporter assay: THP1-Dual KO-IFNAR2 cells stimulated with 2′3′cGAMP, luciferase reporter activity. The format is cell-based. As to conditions: 15 μM 2′3′cGAMP, 24h, class symbols. As for the experimental part:
STING pathway activation by the compounds described herein were measured using THP1-Dual™ cells (KO-IFNAR2).
THP1-Dual™ KO-IFNAR2 Cells (obtained from invivogen) were maintained in RPMI, 10% FCS, 5 ml P/S, 2 mM L-glut, 10 mM Hepes, and 1 mM sodium pyruvate. Compounds were spotted in empty 384 well tissue culture plates (Greiner 781182) by Echo for a final concentration of 0.0017-100 μM. Cells were plated into the TC plates at 40 μL per well, 2×10E6 cells/mL. For activation with STING ligand, 2′3′cGAMP (MW 718.38, obtained from Invivogen), was prepared in Optimem media.
The following solutions were prepared for each 1×384 plate: • Solution A: 2 mL Optimem with one of the following stimuli: • 60 uL of 10 mM 2′3′cGAMP ->150 μM stock • Solution B: 2 mL Optimem with 60 μL Lipofectamine 2000->Incubate 5 min at RT
2 mL of solution A and 2 ml Solution B was mixed and incubated for 20 min at room temperature (RT). 20 uL of transfection solution (A+B) was added on top of the plated cells, with a final 2′3′cGAMP concentration of 15 μM. The plates were then centrifuged immediately at 340 g for 1 minute, after which they were incubated at 37° C., 5% CO2, >98% humidity for 24h. Luciferase reporter activity was then measured. EC50 values were calculated by using standard methods known in the art.
Luciferase reporter assay: 10 μL of supernatant from the assay was transferred to white 384-plate with flat bottom and squared wells. One pouch of QUANTI-Luc™ Plus was dissolved in 25 mL of water. 100 μL of QLC Stabilizer per 25 mL of QUANTI-Luc™ Plus solution was added. 50 μL of QUANTI-Luc™ Plus/QLC solution per well is then added. Luminescence is measured on a Platereader (e.g., Spectramax I3X (Molecular Devices GF3637001)).
Luciferase reporter activity was then measured. EC50 values were calculated by using standard methods known in the art.
Background: Reporter assays use an easily measured gene product as a stand-in for the process of interest.
With `O=C(NCCc1ccc(OC(F)(F)F)cc1)Nc1ccc2cc[nH]c2c1` [Compound 183], the EC50 (as a rule, the concentration needed to bring the measured effect to its halfway point) is 0.2 to 1 µM.

For `O=C(Nc1ccc(C(F)(F)F)cc1)Nc1cnc2cc[nH]c2c1` [Compound 111], the EC50 fell in the range of 0.2 to 1 µM.

Take `N#Cc1c[nH]c2cc(NC(=O)Nc3cccc(C(F)(F)F)c3)ccc12` [Compound 539]: the EC50 was in the range of 5 to 100 µM. In turn, `CC[C@H](NC(=O)Nc1ccc2cc[nH]c2c1)c1ccccc1` [Compound 222] displayed an EC50 of 5 to 100 µM. Turning to `Cc1ccc(Nc2ccc3cc[nH]c3c2)nc1C(F)(F)F` [Compound 421, N-(5-methyl-6-(trifluoromethyl)pyridin-2-yl)-1H-indol-6-amine], the concentration for a half-maximal effect (EC50) lay within 1 to 5 µM. The same measure, in the same setting: the same measure for `CN(c1ccc2cc[nH]c2c1)c1ccc2ccc(C(F)(F)F)cc2n1` [Compound 605, N-(1H-indol-6-yl)-N-methyl-7-(trifluoromethyl)quinolin-2-amine]: 5 to 100 µM; for `FC(F)(F)COc1cccc(Nc2ccc3cc[nH]c3c2)n1` [Compound 396, N-(6-(2,2,2-trifluoroethoxy)pyridin-2-yl)-1H-indol-6-amine]: 5 to 100 µM; for `N#Cc1c[nH]c2cc(NC(=O)Nc3ccc(C(F)(F)F)cc3)ccc12` [Compound 258, 3-(3-cyano-1H-indol-6-yl)-1-[4-(trifluoromethyl)phenyl]urea]: 0.2 to 1 µM.

`CC(=O)n1cc(C#N)c2ccc(NC(=O)Nc3ccc(C(F)(F)F)cc3)cc21` [Compound 529] showed an EC50 of 1 to 5 µM. For `O=C(Nc1ccc(C(F)(F)F)c(F)c1)Nc1ccc2cc[nH]c2c1` [Compound 253], the EC50 was in the range of 0.04 to 0.2 µM. Compound `O=C(NCCc1cccc(Cl)c1)Nc1ccc2cc[nH]c2c1` [Compound 210] gave a 50% effective concentration (EC50) of 1 to 5 µM. For `CCC(NC(=O)Nc1ccc2cc[nH]c2c1)c1cccc(C(F)(F)F)c1` (stereo not shown) [Compound 199], the EC50 fell in the range of 1 to 5 µM. `Cc1ccc(CCNC(=O)Nc2ccc3cc[nH]c3c2)cc1C` [Compound 186] came in with a concentration for a half-maximal effect (EC50) of 1 to 5 µM. Still for that read-out and setting: the same measure for `C#Cc1ccc(NC(=O)Nc2ccc3[nH]ccc3c2)cc1` [Compound 151]: 5 to 100 µM.

On to `O=C(NCCc1c(F)cccc1Cl)Nc1ccc2cc[nH]c2c1` [Compound 209], for which the EC50 lay in the range of 1 to 5 µM. Compound `O=C(NCCOc1cccc(C(F)(F)F)c1)Nc1ccc2cc[nH]c2c1` [Compound 525] registered an EC50 of 0.2 to 1 µM. Same read-out and setting: in the case of `CCOc1ccc(Nc2ccc3cc[nH]c3c2)nc1C` [Compound 594, N-(5-ethoxy-6-methylpyridin-2-yl)-1H-indol-6-amine] it was 5 to 100 µM; in that of `O=C(NCCc1ccc(Br)cc1)Nc1ccc2cc[nH]c2c1` [Compound 208], 0.2 to 1 µM.

`N#Cc1cc2cc(NC(=O)Nc3ccc(C(F)(F)F)cc3)ccc2[nH]1` [Compound 370] displayed an EC50 of 5 to 100 µM. Same read-out and setting: the same measure for `Fc1ccc2nc(Nc3ccc4cc[nH]c4c3)ccc2c1C(F)(F)F` [Compound 550]: 0.2 to 1 µM. As for `O=C(Nc1ccc(C(F)(F)F)cc1)Nc1cc(F)c2cc[nH]c2c1` [Compound 246], the EC50 lay within 0.2 to 1 µM. Compound `Fc1cc(C(F)(F)F)c2ccc(Nc3ccc4cc[nH]c4c3)nc2c1` [Compound 558] returned a concentration for a half-maximal effect (EC50) of 0.2 to 1 µM. As for `O=C(Nc1cccc(S(=O)(=O)N2CCCC2)c1)Nc1ccc2cc[nH]c2c1` [Compound 168], the EC50 lay within 5 to 100 µM.

`CN(C)CCc1cc(NC(=O)Nc2ccc(C(F)(F)F)cc2)cc2[nH]ccc12` [Compound 513] returned an EC50 of 5 to 100 µM. In the case of `c1cc2ccc(Nc3ccc4ccc(C5CCCCC5)cc4n3)cc2[nH]1` [Compound 389, 7-cyclohexyl-N-(1H-indol-6-yl)quinolin-2-amine], the EC50 was in the range of 1 to 5 µM. As for `CC(C)c1ccc(-c2nnc(NC(=O)Nc3ccc4cc[nH]c4c3)s2)cc1` [Compound 182], the EC50 was 0.2 to 1 µM. On to `O=C(Nc1cccc(S(=O)(=O)C(F)(F)F)c1)Nc1ccc2cc[nH]c2c1` [Compound 203], for which the EC50 was 1 to 5 µM. Take `c1cc2c(c(Nc3ccc4cc[nH]c4c3)n1)CCCC2` [Compound 431, N-(1H-indol-6-yl)-5,6,7,8-tetrahydroisoquinolin-1-amine]: the EC50 lay within 5 to 100 µM. Still for that read-out and setting: the same measure for `CC(C)(C)c1cccc(Nc2ccc3cc[nH]c3c2)n1` [Compound 420, N-(6-(tert-butyl)pyridin-2-yl)-1H-indol-6-amine]: 1 to 5 µM; for `O=C(NCCC1CC1)Nc1ccc2cc[nH]c2c1` [Compound 162]: 5 to 100 µM; for `O=C(Nc1cccc(C(F)(F)F)c1)Nc1ccc2cc[nH]c2c1` [Compound 272]: 0.2 to 1 µM. The same measure, in the same setting: the same measure for `Cc1nc(Nc2ccc3cc[nH]c3c2)ccc1OC(C)C` [Compound 571, N-[6-methyl-5-(propan-2-yloxy)pyridin-2-yl]-1H-indol-6-amine]: 1 to 5 µM. Same read-out and setting: the same measure for `CCCCCCCCCCCCCCNC(=O)Nc1ccc2cc[nH]c2c1` [Compound 236]: 0.2 to 1 µM. In turn, `Clc1ccc(Nc2ccc3cc[nH]c3c2)nc1Nc1ccc2cc[nH]c2c1` [Compound 581, 3-chloro-N2,N6-bis(1H-indol-6-yl)pyridine-2,6-diamine] gave an EC50 of 5 to 100 µM. Compound `O=C(Nc1ccc2cc[nH]c2c1)Nc1ccc(N2CCC(F)(F)CC2)cn1` [Compound 249] gave an EC50 of 1 to 5 µM. On to `FC(F)(F)c1cc2nc(Nc3ccc4cc[nH]c4c3)ccc2cc1Cl` [Compound 556], for which the concentration for a half-maximal effect (EC50) was in the range of 1 to 5 µM.

Still in this assay, the particulars now being: 15 μM 2′3′cGAMP, 24h, numeric bounds.
In turn, `O=C(Nc1ccc2[nH]ccc2c1)Nc1ccccc1Cl` [Compound 362] gave a concentration for a half-maximal effect (EC50) greater than 30 µM. In turn, `CC(CNC(=O)Nc1ccc2cc[nH]c2c1)c1ccccc1` (stereo not shown) [Compound 213] had a concentration giving a half-maximal response (EC50) greater than 30 µM.

`O=C(NCCc1c(F)cccc1Cl)Nc1ccc2[nH]ccc2c1` [Compound 323] showed an EC50 greater than 30 µM. The compound `O=C(NCCc1ccccc1Br)Nc1ccc2[nH]ccc2c1` [Compound 304] came in with a concentration giving a half-maximal response (EC50) greater than 30 µM. The compound `O=C(NCc1csc(-c2ccc(Cl)cc2)n1)Nc1ccc2[nH]ccc2c1` [Compound 350] gave an EC50 greater than 30 µM. For `CC(CNC(=O)Nc1ccc2[nH]ccc2c1)c1ccccc1` (stereo not shown) [Compound 325], the concentration giving a half-maximal response (EC50) is greater than 30 µM. Compound `CCCCC1CCC(NC(=O)Nc2ccc3[nH]c(Cl)cc3c2)CC1` (stereo not shown) [Compound 372] came in with a half-maximal effective concentration (EC50) greater than 100 µM. In the case of `O=C(NCCC1CC1)Nc1ccc2[nH]ccc2c1` [Compound 330], the half-maximal effective concentration (EC50) is greater than 30 µM.

`Cc1cc(NC(=O)Nc2ccc3c(F)c[nH]c3c2)cnc1N1CCC(F)(F)CC1` [Compound 499] gave a concentration giving a half-maximal response (EC50) greater than 1.11 µM.

As for `Cn1cc(-c2c[nH]c3cc(NC(=O)Nc4ccc(C(F)(F)F)cc4)ccc23)cn1` [Compound 545], the EC50 was greater than 30 µM.

`CC[C@H](NC(=O)Nc1ccc2[nH]ccc2c1)c1ccccc1` [Compound 358] yielded a concentration giving a half-maximal response (EC50) greater than 30 µM. With `Cc1ccccc1NC(=O)Nc1ccc2cc[nH]c2c1` [Compound 231], the 50% effective concentration (EC50) was greater than 30 µM.

The compound `CN1CCC(COc2cnc(Nc3ccc4cc[nH]c4c3)nc2)CC1` [Compound 414, N-(5-((1-methylpiperidin-4-yl)methoxy)pyrimidin-2-yl)-1H-indol-6-amine] had an EC50 greater than 30 µM. Same read-out and setting: in the case of `O=C(Nc1ccc(C(F)(F)F)cc1)Nc1cc(C(=O)O)c2cc[nH]c2c1` [Compound 166] it was greater than 30 µM; in that of `c1ccc(-c2cccc(Nc3ccc4cc[nH]c4c3)n2)cc1` [Compound 427, N-(6-phenylpyridin-2-yl)-1H-indol-6-amine], greater than 20.4 µM.

The compound `OCc1cccnc1Nc1ccc2cc[nH]c2c1` [Compound 400, (2-((1H-indol-6-yl)amino)pyridin-3-yl)methanol] returned a concentration giving a half-maximal response (EC50) greater than 30 µM.

With `Cc1ccccc1CNC(=O)Nc1ccc2[nH]ccc2c1` [Compound 338], the EC50 is greater than 30 µM. In the case of `FC(F)(F)Oc1cccc(Nc2ccc3cc[nH]c3c2)n1` [Compound 409, N-(6-(trifluoromethoxy)pyridin-2-yl)-1H-indol-6-amine], the concentration for a half-maximal effect (EC50) was greater than 30 µM. `O=C(NCCc1ccccc1Cl)Nc1ccc2[nH]ccc2c1` [Compound 355] showed an EC50 greater than 30 µM.

For `Cc1ccc(CNC(=O)Nc2ccc3cc[nH]c3c2)cc1` [Compound 192], the EC50 is greater than 30 µM. Compound `CCCCCCCCCCCCCCCCNC(=O)Nc1ccc2[nH]ccc2c1` [Compound 348] displayed an EC50 greater than 30 µM. In turn, `CC(F)(F)c1ccnc(Nc2ccc3cc[nH]c3c2)c1` [Compound 416, N-(4-(1,1-difluoroethyl)pyridin-2-yl)-1H-indol-6-amine] registered a 50% effective concentration (EC50) greater than 30 µM. For the compound `O=C(NCc1ccc(C(F)(F)F)c(Cl)c1)Nc1ccc2[nH]ccc2c1` [Compound 319], the EC50 was greater than 30 µM. For the compound `CC(=O)c1c[nH]c2cc(NC(=O)Nc3ccc(C(F)(F)F)cc3)ccc12` [Compound 522], the EC50 was greater than 30 µM. Compound `CC(C)(C)n1cc(NC(=O)Nc2ccc3cc[nH]c3c2)cn1` [Compound 218] showed an EC50 greater than 30 µM.

The values above are taken from US20230092163A1, “COMPOUNDS AND COMPOSITIONS FOR TREATING CONDITIONS ASSOCIATED WITH STING ACTIVITY” (IFM Due, Inc., priority 2019, published 2023).
